In assay [1] the target is Cyclin-dependent kinase 4/cyclin D1 (Homo sapiens, UniProt P11802). Description: Inhibitory concentration against human Cyclin D1-cyclin-dependent kinase 4 was observed. It is filed as protein-complex assay.
In assay [2] the target is Cyclin-dependent kinase 1/cyclin B (Homo sapiens, UniProt P06493). Description: Inhibitory concentration against human Cyclin B-cyclin-dependent kinase 1 was observed. In kind it is protein-complex assay.
The test system of the next assay is HCT-116. Description: Inhibitory concentration against proliferation of human HCT116 cells was observed by MTT assay. In kind it is functional, cell-based. Background: Tetrazolium dyes change colour on reduction, which living cells bring about.
The target in assay [3] is Cyclin-dependent kinase 2/cyclin E (Homo sapiens, UniProt P24941). Description: Inhibitory concentration against human Cyclin E-cyclin-dependent kinase 2 was observed. In kind it is protein-complex assay.

Molecules are shown by their SMILES. Where only a bound is given, the exact number is not on record here.

As a reminder, the IC50 is the concentration needed to halve the response being measured.

Cyclin-dependent kinase 4/cyclin D1, sequence (P11802 whole entry): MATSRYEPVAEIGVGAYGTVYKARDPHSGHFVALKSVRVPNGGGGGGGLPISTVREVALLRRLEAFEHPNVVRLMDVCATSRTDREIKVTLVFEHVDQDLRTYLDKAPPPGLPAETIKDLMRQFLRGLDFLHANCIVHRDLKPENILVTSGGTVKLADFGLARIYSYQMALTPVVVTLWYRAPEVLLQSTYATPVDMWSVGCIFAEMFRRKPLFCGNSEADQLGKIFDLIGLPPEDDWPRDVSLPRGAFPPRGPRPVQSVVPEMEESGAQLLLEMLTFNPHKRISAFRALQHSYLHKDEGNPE
Cyclin-dependent kinase 4/cyclin D1, sequence (P24385 whole entry, further chain): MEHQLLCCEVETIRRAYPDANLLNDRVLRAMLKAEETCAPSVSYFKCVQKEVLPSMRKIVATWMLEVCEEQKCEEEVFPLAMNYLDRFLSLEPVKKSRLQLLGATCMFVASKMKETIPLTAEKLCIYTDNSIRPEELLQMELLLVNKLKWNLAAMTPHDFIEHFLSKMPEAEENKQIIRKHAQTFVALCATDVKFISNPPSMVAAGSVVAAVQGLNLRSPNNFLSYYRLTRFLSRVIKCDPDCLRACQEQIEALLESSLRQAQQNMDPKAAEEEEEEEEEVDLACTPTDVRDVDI

In the case of `NS(=O)(=O)c1ccc(Nc2cn3cc(C(=O)c4c(Cl)cccc4Cl)ccc3n2)cc1`, the half-maximal inhibitory concentration (IC50) in assay [1] came to 1340 nM; in assay [2], 390 nM; in the assay on HCT-116 it was 5500 nM.

`NC(=O)c1cccc(Nc2cn3cc(C(=O)c4c(Cl)cccc4Cl)ccc3n2)c1`: the results for the IC50 in assay [1], in assay [2] and in assay [3] were 3950 nM, 1920 nM and 2720 nM, respectively.

For the compound `O=C(NS(=O)(=O)c1ccc(Nc2cn3cc(C(=O)c4c(Cl)cccc4Cl)ccc3n2)cc1)c1ccccc1`, the IC50 in assay [1] is 3840 nM; in assay [2], 250 nM; in assay [3], 670 nM.

On to `CS(=O)(=O)c1cccc(Nc2cn3cc(C(=O)c4c(Cl)cccc4Cl)ccc3n2)c1`, for which the results for the IC50 in assay [1], in assay [2] and in assay [3] were 3140 nM, 1700 nM and 2860 nM, respectively.

For `NC(=O)c1ccc(Nc2cn3cc(C(=O)c4c(Cl)cccc4Cl)ccc3n2)cc1`, the IC50 is 1610 nM in assay [1], 580 nM in assay [2] and 1630 nM in assay [3].

For the compound `N=C(N)NS(=O)(=O)c1ccc(Nc2cn3cc(C(=O)c4c(Cl)cccc4Cl)ccc3n2)cc1`, the 50% inhibitory concentration (IC50) came to 1290 nM in assay [1], 160 nM in assay [2] and 250 nM in assay [3].

In the case of `CSc1ccc(Nc2cn3cc(C(=O)c4c(Cl)cccc4Cl)ccc3n2)cc1`, the values for the IC50 in assay [1], in assay [2] and in assay [3] were 7400 nM, 3040 nM and 13800 nM, respectively.

On to `CN(C)S(=O)(=O)c1ccc(Nc2cn3cc(C(=O)c4c(Cl)cccc4Cl)ccc3n2)cc1`, for which the half-inhibitory concentration (IC50) in assay [1] stood at 2160 nM; in assay [2], 970 nM; in assay [3], 1540 nM.

On to `O=C(c1ccc2nc(Nc3ccncc3)cn2c1)c1c(Cl)cccc1Cl`, for which the 50% inhibitory concentration (IC50) in assay [1], in assay [2] and in assay [3] was over 20000 nM throughout.

Consider `O=C(O)c1ccc(Nc2cn3cc(C(=O)c4c(Cl)cccc4Cl)ccc3n2)cc1`, for which the IC50 in assay [1] turned out to be 4990 nM; in assay [2] it was 450 nM; in assay [3], 740 nM.

As to `O=C(c1ccc2nc(Nc3ccc(Oc4ccccc4)cc3)cn2c1)c1c(Cl)cccc1Cl`, the concentration for half-maximal inhibition (IC50) in assay [1], in assay [2] and in assay [3] was over 20000 nM each time.

On to `CSc1cccc(Nc2cn3cc(C(=O)c4c(Cl)cccc4Cl)ccc3n2)c1`, for which the results for the IC50 in assay [1], in assay [2] and in assay [3] were 11900 nM, 4800 nM and 17700 nM, respectively.

With `CN(C)S(=O)(=O)c1cccc(Nc2cn3cc(C(=O)c4c(Cl)cccc4Cl)ccc3n2)c1`, the figures for the half-inhibitory concentration (IC50) in assay [1], in assay [2] and in assay [3] were over 20000 nM, 9260 nM and 12100 nM, respectively.

As for `CS(=O)(=O)c1ccc(Nc2cn3cc(C(=O)c4c(Cl)cccc4Cl)ccc3n2)cc1`, the half-inhibitory concentration (IC50) in assay [1] is 1220 nM; in assay [2], 520 nM; in assay [3], 1210 nM.

Source of the values: ChEMBL document CHEMBL1143514 (Bioorg Med Chem Lett, 2005).
